Earlier results in article PMC8025584, “Identification of multipotent drugs for COVID-19 therapeutics with the evaluation of their SARS-CoV2 inhibitory activity” (Computational and Structural Biotechnology Journal, 2021).
Counter-ions that a name gives are not always drawn. Like-named read-outs stand apart in the source and are kept apart here.

Tested on: differentially expressed human proteins in COVID-19
Conditions: cited from earlier work
[1] = gene HCK, drug-gene interaction listed in DGIdb export, ref DGIdb
[2] = gene CACNA1A, drug-gene interaction listed in DGIdb export, ref DGIdb
[3] = gene TNF, drug-gene interaction listed in DGIdb export, ref DGIdb

## COc1cc2nc(N3CCN(C(=O)C4COc5ccccc5O4)CC3)nc(N)c2cc1OC (stereo not shown) [DOXAZOSIN]
Gene KCNH7, ref DGIdb
  interaction_types: inhibitor

## C[C@H]1c2cccc(O)c2C(=O)C2=C(O)[C@]3(O)C(=O)C(C(N)=O)=C(O)[C@@H](N(C)C)[C@@H]3[C@@H](O)[C@@H]21 [DOXYCYCLINE]
Gene MMP8, ref DGIdb
  interaction_types: inhibitor

## CCCCc1oc2ccc(NS(C)(=O)=O)cc2c1C(=O)c1ccc(OCCCN(CCCC)CCCC)cc1 [DRONEDARONE HYDROCHLORIDE]
Gene KCNJ2, ref DGIdb
  interaction_types: blocker

## CC/C(=C(\c1ccc(O)cc1)c1ccc(OCCNC)cc1)c1ccccc1 [ENDOXIFEN]
Gene CYP19A1, ref DGIdb
  interaction_types: inhibitor

## Cn1cc(C2=C(c3cn(C)c4cc([N+](=O)[O-])ccc34)C(=O)NC2=O)c2ccccc21 [ENMD-981693]
Gene FGR, ref DGIdb
  interaction_types: inhibitor
[1]
  interaction_types: inhibitor

## CNC[C@H](O)c1ccc(O)c(O)c1 [EPINEPHRINE]
  interaction_types: agonist¦antagonist

## C=C1C[C@@H]2CC[C@@]34C[C@H]5O[C@H]6[C@@H](O3)[C@H]3O[C@H](CC[C@@H]3O[C@H]6[C@H]5O4)CC(=O)C[C@@H]3[C@@H](OC)[C@@H](C[C@H](O)CN)O[C@H]3C[C@H]3O[C@@H](CC[C@@H]1O2)C[C@@H](C)C3=C [ERIBULIN MESYLATE]
Gene TUBA4A, ref DGIdb
  interaction_types: inhibitor

## CCCCCC/C=C\CCCCCCCCCC(=O)N[C@H]1[C@H](OC[C@H]2O[C@H](OP(=O)(O)O)[C@H](NC(=O)CC(=O)CCCCCCCCCCC)[C@@H](OCCCCCCCCCC)[C@@H]2O)O[C@H](COC)[C@@H](OP(=O)(O)O)[C@@H]1OCC[C@@H](CCCCCCC)OC [ERITORAN TETRASODIUM]
Gene LY96, ref DGIdb
  interaction_types: antagonist

## C#CC1(OC(N)=O)CCCCC1 [ETHINAMATE]
  interaction_types: inhibitor

## CCOc1ccc2nc(S(N)(=O)=O)sc2c1 [ETHOXZOLAMIDE]
Gene CA1, ref DGIdb
  interaction_types: inhibitor

## CC(O)(P(=O)(O)O)P(=O)(O)O [ETIDRONIC ACID]
Gene SLC25A4, ref DGIdb
  interaction_types: inhibitor

## CCOC(=O)/C=C(C)/C=C/C=C(C)/C=C/c1c(C)cc(OC)c(C)c1C [ETRETINATE]
Gene RXRB, ref DGIdb
  interaction_types: agonist

## N#Cc1ccc(C2CCCc3cncn32)cc1 (stereo not shown) [FADROZOLE]
  interaction_types: inhibitor

## CCOc1ccc(-c2ccc(Cn3c(CC(C)(C)C(=O)O)c(SC(C)(C)C)c4cc(OCc5ccc(C)cn5)ccc43)cc2)cn1 [FIBOFLAPON]
Gene ALOX5AP, ref DGIdb
  interaction_types: inhibitor

## COc1cc(Nc2ncc(F)c(Nc3ccc4c(n3)N(COP(=O)(O)O)C(=O)C(C)(C)O4)n2)cc(OC)c1OC [FOSTAMATINIB, reference compound]
Gene EIF2AK2, ref DGIdb
  interaction_types: inhibitor
Gene FGR, ref DGIdb
  interaction_types: inhibitor
Gene GAK, drug-gene interaction listed in DGIdb export, ref DGIdb
  interaction_types: inhibitor
[1]
  interaction_types: inhibitor
Gene PTK2B, ref DGIdb
  interaction_types: inhibitor
Gene TAOK3, ref DGIdb
  interaction_types: inhibitor

## COc1ccc(/C=C\c2cc(OC)c(OC)c(OC)c2)cc1OP(=O)(O)O [FOS[…]]
Gene TUBA4A, ref DGIdb
  interaction_types: inhibitor

## CC(OC(=O)NCC1(CC(=O)O)CCCCC1)OC(=O)C(C)C (stereo not shown) [GABAPENTIN ENACARBIL, reference compound]
[2]
  interaction_types: modulator

## NCC1(CC(=O)O)CCCCC1 [GABAPENTIN, reference compound]
[2]
  interaction_types: modulator

## C[C@]1(C(=O)N(CCCC(=O)O)Cc2cccc(Cl)c2)CCN1C(=O)c1csc2ccccc12 [GLPG-0974]
Gene FFAR2, ref DGIdb
  interaction_types: antagonist

## O=c1nc(OC[C@@H]2COCCO2)cc2n1CCc1cc(C#CC3CC3)ccc1-2 [GLPG-1205]
Gene GPR84, ref DGIdb
  interaction_types: antagonist

## N[C@@H](CCC(=O)N[C@@H](CS)C(=O)NCC(=O)O)C(=O)O [GLUTATHIONE]
  interaction_types: cofactor

## Cl.N=C(N)N [GUANIDINE HYDROCHLORIDE]
Gene KCNH7, ref DGIdb
  interaction_types: blocker

## Nc1nc2nc[nH]c2c(=O)[nH]1 [GUANINE]
Gene GCH1, ref DGIdb
  interaction_types: inhibitor

## CCS(=O)(=O)Nc1ccc2c(c1)/C(=C(/Nc1ccc(CN3CCCCC3)cc1)c1ccccc1)C(=O)N2 [HESPERADIN]
[1]
  interaction_types: inhibitor
Gene PTK2B, ref DGIdb
  interaction_types: inhibitor

## NCCc1c[nH]cn1 [HISTAMINE]
  interaction_types: activator

## N[C@@H](Cc1c[nH]cn1)C(=O)O [HISTIDINE]
Gene CA1, ref DGIdb
  interaction_types: activator

## NS(=O)(=O)c1cc2c(cc1Cl)NCNS2(=O)=O [HYDROCHLOROTHIAZIDE, reference compound]
Gene CA1, ref DGIdb
  interaction_types: inhibitor

## NS(=O)(=O)c1cc2c(cc1C(F)(F)F)NCNS2(=O)=O [HYDROFLUMETHIAZIDE]
Gene CA1, ref DGIdb
  interaction_types: inhibitor

## C=CC(=O)N1CCC[C@@H](n2nc(-c3ccc(Oc4ccccc4)cc3)c3c(N)ncnc32)C1 [IBRUTINIB]
[1]
  interaction_types: inhibitor

## CCCCCCCN(CC)CCCC(O)c1ccc(NS(C)(=O)=O)cc1 (stereo not shown) [IBUTILIDE, reference compound]
Gene KCNH7, ref DGIdb
  interaction_types: inhibitor

## Nc1ncc(-c2cnn(CCO)c2)c2scc(-c3ccc(NC(=O)Nc4cccc(F)c4)cc3)c12 [ILORASERTIB]
Gene FGR, ref DGIdb
  interaction_types: inhibitor
[1]
  interaction_types: inhibitor

## CCC[C@@H](C)C[C@H](N)CC(=O)O [IMAGABALIN]
[2]
  interaction_types: modulator

## Nc1cc(-c2ccncc2)c[nH]c1=O [INAMRINONE]
[3]
  interaction_types: inhibitor

## O=C(Nc1ccncc1)C(=O)c1cn(Cc2ccc(Cl)cc2)c2ccccc12 [INDIBULIN]
Gene TUBA4A, ref DGIdb
  interaction_types: inhibitor

## O=C1Nc2ccccc2/C1=C1/Nc2ccccc2C1=O [INDIRUBIN]
  interaction_types: substrate

## CCc1c2c(nc3ccc(OC(=O)N4CCC(N5CCCCC5)CC4)cc13)-c1cc3c(c(=O)n1C2)COC(=O)[C@]3(O)CC [IRINOTECAN, reference compound]
Gene ISG15, ref DGIdb
  interaction_types: inhibitor

## CC(/C=C/[C@@H]1C[C@]1(C)c1ccc2c(c1)C(C)(C)CCC2(C)C)=C\C(=O)O [IRX-4204]
Gene RXRB, ref DGIdb
  interaction_types: agonist

## C/C(=C\c1csc(C)n1)[C@@H]1C[C@@H]2O[C@]2(C)CCC[C@H](C)[C@H](O)[C@@H](C)C(=O)C(C)(C)[C@@H](O)CC(=O)N1 [IXABEPILONE]
Gene TUBA4A, ref DGIdb
  interaction_types: inhibitor

## Cc1oncc1C(=O)Nc1ccc(C(F)(F)F)cc1 [LEFLUNOMIDE]
Gene PTK2B, ref DGIdb
  interaction_types: antagonist

## N#Cc1ccc(C(c2ccc(C#N)cc2)n2cncn2)cc1 [LETROZOLE]
Gene CYP19A1, ref DGIdb
  interaction_types: antagonist¦inhibitor

## CCC[C@H](Nc1nc(-c2ccc(NC(=O)NCC)c(OC)c2)ncc1C)c1cccnc1 [LEXIBULIN]
Gene TUBA4A, ref DGIdb
  interaction_types: inhibitor

## CN(C)C(=O)C(CCN1CCC(O)(c2ccc(Cl)cc2)CC1)(c1ccccc1)c1ccccc1 [LOPERAMIDE]
[2]
  interaction_types: inhibitor

## CN(C)C(=N)N=C(N)N [METFORMIN]
Gene PRKAB1, ref DGIdb
  interaction_types: activator¦inducer

## CC(=O)/N=c1/sc(S(N)(=O)=O)nn1C [METHAZOLAMIDE]
Gene CA1, ref DGIdb
  interaction_types: inhibitor

## COc1ccccc1OCC(O)COC(N)=O (stereo not shown) [METHOCARBAMOL]
Gene CA1, ref DGIdb
  interaction_types: inhibitor

## CN1C(CCl)Nc2cc(Cl)c(S(N)(=O)=O)cc2S1(=O)=O (stereo not shown) [METHYCLOTHIAZIDE]
Gene CA1, ref DGIdb
  interaction_types: inhibitor

## C/C(=C\c1ccc(OCCN2CCOCC2)cc1)c1ccc2c(c1)C(C)(C)CCC2(C)C [MOFAROTENE]
Gene RXRB, ref DGIdb
  interaction_types: modulator

## CN1CC[C@]23c4c5ccc(O)c4O[C@H]2[C@@H](O)C=C[C@H]3[C@H]1C5 [MORPHINE]
  interaction_types: activator

## O=C1C[C@@H](c2ccc(O)cc2)Oc2cc(O)cc(O)c21 [NARINGENIN]
Gene CYP19A1, ref DGIdb
  interaction_types: inhibitor

## CCCc1c2oc(C(=O)O)cc(=O)c2cc2c(=O)cc(C(=O)O)n(CC)c12 [NEDOCROMIL, reference compound]
Gene FPR1, ref DGIdb
  interaction_types: antagonist

## CN1CCC[C@H]1c1cccnc1 [NICOTINE]
  interaction_types: inhibitor

## COC(=O)c1ccc2c(c1)NC(=O)/C2=C(\Nc1ccc(N(C)C(=O)CN2CCN(C)CC2)cc1)c1ccccc1 [NINTEDANIB, reference compound]
Gene FGR, ref DGIdb
  interaction_types: inhibitor
[1]
  interaction_types: inhibitor

## COC1=CC(c2cc3ccccc3[nH]2)=N/C1=C\c1[nH]c(C)cc1C [OBATOCLAX MESYLATE]
Gene BCL2A1, ref DGIdb
  interaction_types: inhibitor

## CN(C)CC/C=C1/c2ccccc2COc2ccc(CC(=O)O)cc21 [OLOPATADINE, reference compound]
Gene S100A12, ref DGIdb
  interaction_types: antagonist

## Cc1ccc(-n2nc(C(C)(C)C)cc2NC(=O)NCc2cc(F)ccc2Oc2ccc3c(cnn3CCO)c2)cc1 [PEXMETINIB]
[1]
  interaction_types: inhibitor

## CN(c1ncccc1CNc1nc(Nc2ccc3c(c2)CC(=O)N3)ncc1C(F)(F)F)S(C)(=O)=O [PF-00562271]
Gene PTK2B, ref DGIdb
  interaction_types: inhibitor

## O=C(CCc1ccc(O)cc1)c1c(O)cc(O)cc1O [PHLORETIN]
Gene AQP9, ref DGIdb
  interaction_types: inhibitor

## CC(C)(C)c1[nH]cnc1/C=c1\[nH]c(=O)/c(=C/c2ccccc2)[nH]c1=O [PLINABULIN]
Gene TUBA4A, ref DGIdb
  interaction_types: inhibitor

## COc1cc([C@@H]2c3cc4c(cc3[C@H](O)[C@H]3COC(=O)[C@H]23)OCO4)cc(OC)c1OC [PODOFILOX, reference compound]
Gene TUBA4A, ref DGIdb
  interaction_types: inhibitor

## CC1(C)OC(c2ccc(S(N)(=O)=O)cc2)=C(c2cccc(F)c2)C1=O [POLMACOXIB]
Gene CA1, ref DGIdb
  interaction_types: inhibitor

## Nc1cccc2c1C(=O)N(C1CCC(=O)NC1=O)C2=O (stereo not shown) [POMALIDOMIDE]
[3]
  interaction_types: inhibitor

## COc1cc2nc(N3CCN(C(=O)c4ccco4)CC3)nc(N)c2cc1OC [PRAZOSIN]
Gene KCNH7, ref DGIdb
  interaction_types: inhibitor

## CC(C)C[C@H](CN)CC(=O)O [PREGABALIN, reference compound]
  interaction_types: modulator¦inhibitor

## NC(=O)c1cnc(N[C@@H]2CCCC[C@@H]2N)nc1Nc1cccc(-n2nccn2)c1 [PRT-2607]
Gene FGR, ref DGIdb
  interaction_types: inhibitor
